Values quoted from earlier work as cited in patent publication US7338780B2, “Method for producing tripeptides and/or peptides longer than tripeptides” (Ajinomoto Co., Inc., priority 2002, dated 2008).
Residues, ends and D or L forms follow the SMILES beside them.

- water-solubility compared with L-glutamine: higher
SMILES: C[C@H](N)C(=O)N[C@@H](CCC(N)=O)C(=O)O [L-alanyl-L-glutamine] (H-Ala-Gln-OH)
